Where two headings read alike, the source gives them in different places.
Test: Pharmacokinetic assessments in plasma, phase I/Ib study
Assay type: in vivo, human
Conditions: for Fold increase in Cmax: fasting; for AUC(0-inf) / Cmax / AUC / half-life / Tmax / k el: human, plasma, oral; for AUC: read-out: AUC(0-τ); for Tmax: median; for k el: read-out: λz (converted)
Experimental: Complete PK assessments were performed during dose escalation on Day 1 of Cycle 1 and 2 and pre-dose at other time points (pre-dose on Day 8 and Day 15 of Cycle 1 and 2, Day 1 and Day 15 of Cycle 3 and 4 and pre-dose on Cycle 5 and beyond). In the dose expansion phase, samples were collected pre-dose on Day 1 from Cycle 1 to Cycle 8. The PK parameters included maximum plasma concentration (Cmax), time to maximum plasma concentration (Tmax), area under the plasma concentration-time curve from time of administration to the end of the dosing interval (AUC(0-τ)), apparent oral drug clearance during a dosing interval (CLss/F), apparent volume of distribution during a dosing interval (Vz/F) and elimination half-life (t1/2) were evaluated.

[1] = between 400 mg and 800 mg BID, Cycle 1 Day 1
[2] = 200 mg, 200 mg BID, C1D1, geometric mean
[3] = 200 mg, 200 mg BID, C2D1, geometric mean
[4] = 400 mg, 400 mg BID, C1D1, geometric mean
[5] = 400 mg, 400 mg BID, C2D1, geometric mean
[6] = 800 mg, 800 mg BID (fed), C1D1, geometric mean
[7] = 800 mg, 800 mg BID (fed), C2D1, geometric mean
[8] = 800 mg, 800 mg BID, C1D1, geometric mean
[9] = 800 mg, 800 mg BID, C2D1, geometric mean

CC[C@H](Nc1ncnc2[nH]cnc12)c1oc2ccccc2c(=O)c1-c1cccc(F)c1 [Tenalisib]
Food effect on exposure (800 mg BID fasting vs 800 mg BID fed cohort, patients): not significant
λz (800 mg BID, C2D1): 0.3 h⁻¹
Change in Cmax and AUC's, fed vs fasting (800 mg fed and fasting cohorts, patients): < 20%
Dose proportionality of Cmax and AUC(0-τ) (Cycle 1 Day 1): increased proportionally with dose
Tissue distribution (Vz/F) (all cohorts): not highly distributed in tissues
Fold increase in AUC(0-τ) (between 200mg and 400 mg BID, Cycle 1 Day 1): 1.8 fold
Fold increase in Cmax (between 200 mg and 400 mg BID, Cycle 1 Day 1): 1.7 fold
Fold increase in Cmax (between 200 mg and 400 mg BID, Cycle 2 Day 1): 1.8 fold
Fold increase in AUC(0-τ) [1]: 2.6 fold
Fold increase in Cmax [1]: 1.8 fold
Fold increase in Cmax (between 400 mg and 800 mg BID, Cycle 2 Day 1): 1.1 fold
Accumulation (between Cycle 1 Day 1 and Cycle 2 Day 1): no significant accumulation
AUC(0-inf) [2]: 3540 ng·h/mL
Cmax [2]: 1300 ng/mL
AUC [2]: 3500 ng·h/mL
half-life (200 mg, 200 mg BID, C1D1, geometric mean, read-out: t1/2 (converted)): 1.6 h
Tmax (200 mg, 200 mg BID, C1D1): 1 h
AUC(0-inf) [3]: 4020 ng·h/mL
Cmax [3]: 1650 ng/mL
AUC [3]: 3970 ng·h/mL
half-life (200 mg, 200 mg BID, C2D1, geometric mean, read-out: t1/2 (converted)): 1.8 h
Tmax (200 mg, 200 mg BID, C2D1): 0.5 h
AUC(0-inf) [4]: 6530 ng·h/mL
Cmax [4]: 2200 ng/mL
AUC [4]: 6420 ng·h/mL
half-life (400 mg, 400 mg BID, C1D1, geometric mean, read-out: t1/2 (converted)): 1.9 h
Tmax (400 mg, 400 mg BID, C1D1): 0.8 h
AUC(0-inf) [5]: 5600 ng·h/mL
Cmax [5]: 2900 ng/mL
AUC [5]: 5530 ng·h/mL
half-life (400 mg, 400 mg BID, C2D1, geometric mean, read-out: t1/2 (converted)): 2 h
Tmax (400 mg, 400 mg BID, C2D1): 0.5 h
AUC(0-inf) [6]: 14500 ng·h/mL
Cmax [6]: 2670 ng/mL
AUC [6]: 13600 ng·h/mL
half-life (800 mg, 800 mg BID (fed), C1D1, geometric mean, read-out: t1/2 (converted)): 2.6 h
Tmax (800 mg, 800 mg BID (fed), C1D1): 2.1 h
AUC(0-inf) [7]: 14200 ng·h/mL
Cmax [7]: 4170 ng/mL
AUC [7]: 13600 ng·h/mL
half-life (800 mg, 800 mg BID (fed), C2D1, geometric mean, read-out: t1/2 (converted)): 2.8 h
Tmax (800 mg, 800 mg BID (fed), C2D1): 1.1 h
AUC(0-inf) [8]: 17400 ng·h/mL
Cmax [8]: 4000 ng/mL
AUC [8]: 16400 ng·h/mL
half-life (800 mg, 800 mg BID, C1D1, geometric mean, read-out: t1/2 (converted)): 2.6 h
Tmax (800 mg, 800 mg BID, C1D1): 1.1 h
AUC(0-inf) [9]: 17200 ng·h/mL
Cmax [9]: 3230 ng/mL
AUC [9]: 16200 ng·h/mL
half-life (800 mg, 800 mg BID, C2D1, geometric mean, read-out: t1/2 (converted)): 2.6 h
Tmax (800 mg, 800 mg BID, C2D1): 2.1 h
half-life (all cohorts, read-out: Median t1/2 (converted)): 2.28 h
half-life (all cohorts, read-out: t1/2 range): 1.6 to 2.8 h
k el (200 mg BID, C1D1): 0.000111 s⁻¹
k el (400 mg BID, C1D1): 0.000111 s⁻¹
k el (800 mg BID, C1D1): 8.33e-05 s⁻¹
